# How the values were obtained:
# OVCAR-3 = test: Agonistic activity in human OVCAR-3 (ovarian cancer cells); format: functional, cell-based
# HT-29 = test: Agonistic activity in human HT-29 colon cancer cells; format: functional, cell-based
SMILES,EC50 (OVCAR-3) [µM],EC50 (HT-29) [µM]
CCCCCCCCCCCCCCCCCC(=O)OC[C@H](COP(O)(O)=S)OC,0.009,< 1000
CCCCCCCCCCCCCCCCCC(=O)OC[C@@H](COP(O)(O)=S)OC,0.0465,< 1000

# — ChEMBL document CHEMBL1144942, “Enantioselective responses to a phosphorothioate analogue of lysophosphatidic acid with LPA3 receptor-selective agonist activity” (J Med Chem, 2003)
